Like-named read-outs stand apart in the source and are kept apart here.
Columns and labels:
[1] = test system: human pancreatic cancer MIA PACA II cells; assay: Cell viability (MTS); type: cell-based; conditions: MIA PaCa-2, Table 6, N = 2
Experimental: Human hepatocellular carcinoma HepG2 and human pancreatic cancer MIA PACA II cells were obtained from ATCC (Rockville, Md.). They were grown in DMEM (high glucose, Invitrogen) supplemented with 10% FBS, 50 μg/mL penicillin and 50 μg/mL streptomycin, 37° C., 5% CO2 until they reached 80-90% confluency, after which they were subcultured. Passage numbers were kept within 7-14 passages for both cell types.

[2] = test system: PC3 cells; assay: Apoptosis by Annexin V-FITC / propidium iodide staining; type: cell-based, human; conditions: PC3, 48 h; for % Apoptotic / % Necrotic / % Normal: one analysis only; for induction of apoptosis: one determination, preliminary
Experimental: The Annexing® V-FITC Apoptosis Detection Kit (BD Biosciences, Franklin Lakes, N.J.) was used PC3 cells were seeded at 65 000 cells per well in 6-well plates with DMEM (high glucose, supplemented with 10% FBS) as media. Plates were incubated (24 h, 37° C., 5% CO2) for cells to attach and then treated with test compound (prepared in same media but with 5% FBS) for 48 h. Final volume of DMSO per well was 0.05% v/v. After the specified time, the supernatant in the well was collected, the cell pellet was trypsinized, combined with the supernatant and pelleted by centrifugation (150 g, 5 min). The pellet was rinsed twice with cold 1×PBS and suspended in the proprietary binding buffer (1×) to give a concentration of 10^6 cells per mL. An aliquot (100 μL) of the suspension containing 10^5 cells was transferred to the FACS tube (5 mL) to which was added Annexin® V-FITC solution (5 μL) and propidium iodide (PI) solution (5 μL). The solution was gently vortexed, incubated in the dark for 15 min at room temperature (25° C.), after which was added 400 μL of the binding buffer (1×). The sample was analyzed immediately or no later than 1 h, in which case it should be kept in ice and protected from light. Analysis was carried out on a FCS500 flow cytometer (Beckman Coulter, CA) using the FlowJo® software (http: http://www.flowjo.com/). Controls comprised untreated cells, cells exposed to Annexin® V-FITC only, and cells exposed to PI only. Each test compound was evaluated at 4 concentrations. Only 1 determination was made per concentration.

[3] = In vitro metabolite structure identification; type: in vitro ADME; conditions: rat liver microsomes, 45 min, LC/MS/MS
Experimental: The test compound was incubated with rat liver microsomes for 45 minutes, after which aliquots were analyzed by LC/MS/MS for the presence of metabolites. The test compound was incubated with pooled rat liver microsomes (BD Gentest Corp, Woburn, Mass.) in a mixture (final volume 500 μL) comprising the following: rat liver microsomes (7.5 μL of 20 mg microsomal protein to give final concentration of 0.3 mg microsome protein/mL), test compound (2.5 μL of 1 mM test compound in acetonitrile to give final concentration of […]) and phosphate buffer (440 μL of 0.1 M, pH 7.4, containing 1 mM EDTA). The mixture was preincubated for 5 min at 37° C. in a shaking water bath, after which-reaction was initiated by adding 50 μL of 10 mM NADPH (freshly prepared in phosphate buffer) to give a final concentration of 1 mM NADPH in the mixture. Aliquots of 50 μL were withdrawn immediately on addition of NADPH (time 0) and 45 min later. On removal of the sample, reaction was quenched by addition of chilled methanol (100 μL). The mixture was then centrifuged at 10,000 g to remove the protein and the supernatant was analyzed by LC-MS-MS.
Liquid chromatography was performed on an Agilent® 1200 series HPLC system interfaced with a QTRAP 3200 triple quadruple mass spectrometer (Applied Biosystems, Foster City, Calif.). […]

[4] = test system: Human lung fibroblast IMR90 cells; assay: Cell viability on non-malignant cells (MTS, 72 h); type: cell-based
Experimental: Cell viability was determined from the expression:
The plot was constrained to ≧0 and ≦100%.
Human lung fibroblast IMR90 cells were purchased from ATCC (Rockville, Md.) and grown in Eagle's Minimal Essential Media (EMEM, Sigma Aldrich, Singapore) at 37° C., 5% CO2. […] Seeding density was maintained at 4000 cells per well.

[5] = IMR-90, further testing, 72 h, mean (SD), read-out: IC50 IMR90

CCCCCCCCn1cc(CC(N)=O)c2cc(-c3cccc(C)c3)ccc21 [Cysmethynil, 2-[5-(3-methylphenyl)-1-octyl-1H-indolo-3-yl]acetamide, reference compound]
IC50 [1]: 22.5 µM
% Apoptotic ([2]; 12.5 μM): 0.92%
% Necrotic ([2]; 12.5 μM): 6.94%
% Normal ([2]; 12.5 μM): 92.1%
% Apoptotic ([2]; 17.5 μM): 1.96%
% Necrotic ([2]; 17.5 μM): 8.33%
% Normal ([2]; 17.5 μM): 89.7%
% Apoptotic ([2]; 20.0 μM): 1.23%
% Necrotic ([2]; 20.0 μM): 8.06%
% Normal ([2]; 20.0 μM): 90.7%
% Apoptotic ([2]; 22.5 μM): 1.21%
% Normal ([2]; 22.5 μM): 89.6%
induction of apoptosis [2]: not found to induce apoptosis
metabolites found [3]: 4 mono-oxygenated/hydroxylated metabolites (A-D)

CCCCCCCCn1cc(CN(CC)CC)c2cc(-c3cnc(N)nc3)ccc21 [Compound 8-12, 5-(3-Diethylaminomethyl-1-octyl-1H-indol-5-yl)-pyrimidin-2-ylamine]
IC50 ([4]; IMR-90, Table 6, mean (SD), read-out: IC50 (μM) IMR90): 2.65 µM
IC50 [4, 5]: 2.65 µM
IC50 [1]: 1.6 µM
% Apoptotic ([2]; 0.4 μM): 1.45%
% Necrotic ([2]; 0.4 μM): 4.95%
% Normal ([2]; 0.4 μM): 93.6%
% Apoptotic ([2]; 0.8 μM): 1.31%
% Necrotic ([2]; 0.8 μM): 6.85%
% Normal ([2]; 0.8 μM): 91.8%
% Apoptotic ([2]; 1.0 μM): 0.71%
% Necrotic ([2]; 1.0 μM): 8.84%
% Normal ([2]; 1.0 μM): 90.4%
% Apoptotic ([2]; 1.2 μM): 0.93%
% Necrotic ([2]; 1.2 μM): 7.43%
% Normal ([2]; 1.2 μM): 91.6%
induction of apoptosis [2]: Induction of apoptosis was also not observed
metabolites found [3]: four metabolites were proposed

CCCCCCCCn1c2c(c3cc(-c4cnc(N)nc4)ccc31)CN(C)CC2 [Compound 305, 8-(2′-amino-pyrimidin-5′-yl)-2-methyl-5-n-octyl-1,2,3,4-tetrahydropyrido[4,3-b]indole]
IC50 [4, 5]: 5.29 µM
